Laboratory results published in patent publication US12303468B2, “Compositions comprising one or more (bio)-alkanediols with antioxidants” (Symrise AG, priority 2020, dated 2025).
Several values for one entry are separate records, joined by “and”; a condition that tells them apart may be missing. Identical values can stand only once.

How the values were obtained:
[1] = Oxipres test (induction period, product protection); assay type: physicochemical; conditions: for antioxidative boosting (prolonged induction time, less rancidity and reduced acid value), in words: alkanediol in combination with antioxidant (tocopherol) in sunflower oil
Method: To evaluate the influence of 1,2-alkanediols or of 2,3-alkanediols on the antioxidative capacity of antioxidants, two different tests were performed: • (1) Oxipres treatment to simulate product protection; and • (2) Evaluation of reactive oxygen species (ROS) for skin protection.
The following tests were performed with sunflower oil +/− antioxidant and +/− alkanediols. […] Treating it with heat and oxygen triggers and accelerates oxidation easily.
An Oxipres test was performed in order to evaluate the antioxidative capacity of different test samples as described below.
Test procedure: For the evaluation of the antioxidative capacity of the above-described samples, an Oxipres test was conducted. The Oxipres method is bases on oxygen consumption at high temperatures and pressures and allows the determination of oxidative resistance (shelf life) of e.g. oils. The test runs under elevated pressure and temperature, where the process is accelerated. In the Oxipres test the sample is placed inside a hermetically closed iron vessel that is subjected to high oxygen pressures and temperatures of 90 to 120° C. […] The consumption of oxygen results in a pressure drop in the vessel during the test. Higher decrease of pressure indicates more consumption of oxygen and higher oxidation of the test product. Oils with a high degree of unsaturation are most susceptible to autoxidation.
In the test, the antioxidants are oxidized preferentially before the oxidizable fat or oil is oxidized. Thus, the antioxidants protect the fat or oil against oxidation. After this there is a sudden and large consumption of oxygen and the fat becomes rancid. This can be defined by the induction period (IP) in hours. A lower IP correlates with a faster oxidation.
Equipment: The tests were performed with an Oxipres device ex Mikrolab. The instrument is a modification of the bomb method (ASTM D941), which is based on oxidation with oxygen.

[2] = test system: reactive oxygen species (ROS) on ex vivo skin; experiment: DCF assay on ex vivo skin biopsies, aqueous/alcoholic (ethanolic) test samples; assay type: cell-based; conditions: only the vehicle and the alkanediol, no antioxidant
Method: A dichlorofluorescein test (DCF) assay was performed in order to determine the amount of reactive oxygen species (ROS) on ex vivo skin treated with different test samples in a lipophilic or an aqueous/alcoholic system as described below.
DCF assay—assay principle: Ex vivo skin was incubated with 2′,7′-dichlorodihydrofluorescein diacetate at 37° C., 5% CO2. After PBS washing, samples were exposed or not to cumene hydroperoxide. Immediately after exposure, ex vivo skin samples were frozen in liquid nitrogen and 5 μm cryostat sections were made and fixed with acetone to allow the visualisation of fluorescence generated by ROS in cells of the reconstructed skins. […] Green fluorescence was quantified in ex vivo skin using ImageJ software. The depth of immunostaining was measured as follows: green DCFH-DE positive cells were automatically detected using Histolab software and the distance between dermal epidermal junction and the deepest positive cells were measured in each condition. Means were compared using a student's test. […]
The image acquisition was performed by using Olympus BX51 microscope and Olympus DP70 camera. For each skin sample two skin sections have been taken and the related fluorescent images acquired and analyzed. Thus, for each test condition, 12 images have been acquired and analyzed (i.e. 12 data). The analysis of fluorescence has been performed within the dermis area. […]

[3] = Solubility of alkanediols in water; assay type: physicochemical; conditions: visual assessment at ambient temperature after 24 h storage at 5° C.
Text: The water solubility of a substance is the saturation mass concentration of the substance in water at a given temperature. The determination of the solubility in water relates to essentially pure substances which are stable in water and not volatile. The determination of the water solubility of the alkanediols is further described in the following Example 7.
For the determination of the maximum water solubility of an alkanediol. water and different concentrations of the respective alkanediol were blended by stirring. […] The determination of whether the alkanediol has dissolved in water is based entirely on visual observation.

[4] = test system: reactive oxygen species (ROS) on monolayer cells; experiment: DCF assay on monolayer cells (2D); assay type: cell-based; conditions: 300 μM H2O2, Untreated = 100
Method: A dichlorofluorescein test (DCF) assay was performed in order to determine the amount of reactive oxygen species (ROS) on monolayer cells with different test samples as described below.
DCF assay—assay principle (2D): One procedure to quantify intracellular radicals in a cell model is by using the dichlorofluorescein (DCF) assay. […] By intracellular esterases and oxidation, the nonfluorescent H2DCFDA is converted to the highly fluorescent 2′,7′-dichlorofluorescein (DCF). The nonfluorescent fluorescein (2′,7′-dichlorofluorescein diacetate (DCFH-DA)) passes the cell membranes. In the cytoplasm, it is cleaved by intracellular esterases and cannot leave the cell in this form. The oxidation by intracellularly existing ROS (reactive oxygen species) modifies the molecule so that will become DCF and emits fluorescence. ROS stimulation is done by exposure to 300 μM H2O2 for 1 h.
The determination of the anti-oxidative capacity is performed in 96-well microplates from Nunc (Wiesbaden, Germany) and with the microplate reader “Spark” from Tecan (Crailsheim, Germany). Cells are seeded in a black 96 well microplate with transparent bottom and incubated at 37° C. After 24 h the supernatant is decanted and fresh media with 0.1% FBS is added. Further 24 hours later the supernatant is decanted again and the test samples are added and incubated for 24 h. As a positive control Trolox is always co-tested. 300 μM H2O2 is used as ROS source (1 h exposure) The emitted fluorescence is measured from bottom of well at EX/EM 485/528 nm.
The antioxidative capacity is expressed as relative reduction of the stimulated control, which can be determined by rule of proportion in combination with the control.

[5] = test system: IL-8 produced and secreted by HaCaT cells; experiment: Interleukin 8 (IL-8) ELISA; assay type: cell-based, human; conditions: IL 1-alpha stimulated
Method: Interleukin 8 (IL-8) is increased by various kinds of stress including UV and oxidant stress, which thereby cause the recruitment of inflammatory cells and induces further increase in oxidant stress mediators, making it a key parameter in localized inflammation.
An IL-8 ELISA (enzyme lined immunosorbance assay) was performed in order to determine IL-8 produced and secreted by cells from the cell supernatant utilizing antibodies detecting the IL-8.
Experimental procedure: HaCaT cells (spontaneously transformed aneuploid immortal keratinocyte cell line from adult human skin) were seeded in a black 96 well microplate with transparent bottom and incubated at 37° C. After 24 hours the supernatant is decanted and the test samples (100 μl/well) are added and incubated for 24 hours at 37° C. Then IL 1-alpha (1 ng/ml per 100 μl/well) was added as stimulant. Then the medium was changed (100 μl/well) and incubated at 37° C. After 4 h a 70 μl sample was recovered from the cell supernatant. Thereafter, an IL-8 ELISA is carried out with the cell supernatant sample.
The lower the IL-8 concentration the better the […] effect of the antioxidant of the sample.

[6] = in combination with Ascorbyl Palmitate in sunflower oil
[7] = in combination with Hydroxyacetophenone in sunflower oil

Structure (SMILES): CCCCCCCCC(O)CO (stereo not shown) [1,2-decanediol]
- antioxidative boosting (prolonged induction time, less rancidity and reduced acid value), in words [1]: distinguished efficacy for antioxidative boosting

Structure (SMILES): CCCCCC(O)CO (stereo not shown) [1,2-heptanediol]
- antioxidative efficacy, in words [2]: do not have an antioxidative efficacy
- Maximum solubility in water [3]: 2.5 % by weight
- Mean, ROS concentration (%) ([4]; 500 μM): 112%
- antioxidative boosting (prolonged induction time, less rancidity and reduced acid value), in words [1]: distinguished efficacy for antioxidative boosting
- induction period, in words [1, 6]: remarkably prolonged induction periods
- induction period, in words [1, 7]: remarkably prolonged induction periods
- IL-8 concentration ([5]; 500 μM): 959.8 pg/mL and 959.85 pg/mL

Structure (SMILES): CCCCCCCC(O)CO (stereo not shown) [1,2-nonediol, 1,2-nonanediol]
- Maximum solubility in water [3]: 0.1 % by weight
- antioxidative boosting (prolonged induction time, less rancidity and reduced acid value), in words [1]: distinguished efficacy for antioxidative boosting

Structure (SMILES): CCCCC(O)C(C)O (stereo not shown) [2,3-heptanediol]
- antioxidative efficacy, in words [2]: do not have an antioxidative efficacy
- Maximum solubility in water [3]: 3.6 % by weight
- induction period, in words [1, 6]: remarkably prolonged induction periods
- induction period, in words [1, 7]: remarkably prolonged induction periods

Structure (SMILES): CCCC(O)C(C)O (stereo not shown) [2,3-hexanediol]
- induction period, in words ([1]; sunflower oil, tocopherol series (samples 1-43), versus comparative samples of the series): prolonged induction periods

Structure (SMILES): CCCCCCC(O)C(C)O (stereo not shown) [2,3-nonanediol]
- Maximum solubility in water [3]: 0.3 % by weight

Structure (SMILES): CCCCCC(O)C(C)O (stereo not shown) [2,3-octanediol]
- Maximum solubility in water [3]: 1.5 % by weight
- Mean, ROS concentration (%) ([4]; 500 μM): 98%
- antioxidative boosting (prolonged induction time, less rancidity and reduced acid value), in words [1]: distinguished efficacy for antioxidative boosting

Structure (SMILES): NCCC(=O)N[C@@H](Cc1cnc[nH]1)C(=O)O [Carnosine]
- Mean, ROS concentration (%) ([4]; 10 mM): 96%

Structure (SMILES): CCCCC(O)CO (stereo not shown) [Hydrolite ® 6]
- Maximum solubility in water [3]: 50 % by weight

Structure (SMILES): CCCCCCC(O)CO (stereo not shown) [Hydrolite ® 8]
- Maximum solubility in water [3]: 0.5 % by weight

Structure (SMILES): CC1=C(/C=C/C(C)=C/C=C/C(C)=C/C(=O)OCC(=O)C(C)(C)C)C(C)(C)CCC1 [Hydroxypinacolone Retinoate]
- Mean, ROS concentration (%) ([4]; 5 μM + 500 μM): 53%

Structure (SMILES): CC1=C(/C=C/C(C)=C/C=C/C(C)=C/CO)C(C)(C)CCC1 [all trans-Retinol, reference compound]
- Mean, ROS concentration (%) ([4]; 50 μM): 100%
- IL-8 concentration ([5]; 50 μM): 670.8 pg/mL and 670.84 pg/mL

Structure (SMILES): Cc1c(C)c2c(c(C)c1O)CC[C@@](C)(CCC[C@H](C)CCC[C@H](C)CCCC(C)C)O2 [alpha-Tocopherol]
- Mean, ROS concentration (%) ([4]; 50 μM): 45%
- Mean, ROS concentration (%) ([4]; 100 μM): 58%

Structure (SMILES): N=C(N)NCCC[C@H](NC(=O)C[C@H](N)C(=O)O)C(=O)O [beta-aspartyl arginine]
- Mean, ROS concentration (%) ([4]; 10000 μM): 103%
